# Results: PubChem BioAssay (NCI)
# Where “and” joins values, the source holds several entries; their conditions need not be identical. Equal entries are not always repeated.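 Cultured in 96-well plates, cells were exposed to test compound for 48 hours across five concentrations. Here, GI50 denotes the concentration required for 50% inhibition of growth. TGI: concentration producing complete growth inhibition.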
# Key:
# Experiment in all cases: NCI tumour cell line growth inhibition, 48 h
# SN12C renal = system: SN12C renal
# COLO 205 colon = system: COLO 205 colon
# ACHN renal = system: ACHN renal
# HT29 colon = system: HT29 colon
# SW-620 colon = system: SW-620 colon
# A498 renal = system: A498 renal
# SK-MEL-5 melanoma = system: SK-MEL-5 melanoma
# RXF 393 renal = system: RXF 393 renal
# MOLT-4 leukemia = system: MOLT-4 leukemia
# OVCAR-5 ovarian = system: OVCAR-5 ovarian
Compound,GI50 (SN12C renal) [µM],TGI (SN12C renal),GI50 (COLO 205 colon),TGI (COLO 205 colon),GI50 (ACHN renal) [µM],TGI (ACHN renal),GI50 (HT29 colon),TGI (HT29 colon),GI50 (SW-620 colon),TGI (SW-620 colon),GI50 (A498 renal) [µM],TGI (A498 renal),GI50 (SK-MEL-5 melanoma) [µM],TGI (SK-MEL-5 melanoma),GI50 (RXF 393 renal) [µM],TGI (RXF 393 renal),GI50 (MOLT-4 leukemia) [µM],TGI (MOLT-4 leukemia),GI50 (OVCAR-5 ovarian) [µM],TGI (OVCAR-5 ovarian) [µM]
O=C(Nc1ccc(OCc2nnc(-c3ccccc3)o2)c(F)c1)Nc1ccc(Cl)c(C(F)(F)F)c1,1.91,6.23 µM,2.11 µM,5.52 µM,1.84,4.42 µM,2.33 µM,9.9 µM,3.6 µM,35.4 µM,1.61,4.25 µM,1.74,3.59 µM,2.62,8.98 µM,1.61,7.13 µM,7.56,> 100
COc1ccc2cc(Cn3cc[n+](Cc4ccc5ccccc5c4)c3)ccc2c1,2.53,8.97 µM,1.44 µM,3.28 µM,14.3,30.4 µM,1.76 µM,8.23 µM,3.12 µM,14.1 µM,1.03,9.13 µM,1.33,2.62 µM,1.75,4.59 µM,2.31,7.62 µM,2.7,12.5
CCC[CH2][Sn]1([CH2]CCC)[O]CC(CN2CCOCC2)[O]1 (stereo not given),5.02,16.7 µM,3.58 µM,9.59 µM,3.02,9.61 µM,9.65 µM,23.6 µM,1.99 µM,5.44 µM,5.5,17.2 µM,5.4,18.2 µM,1.65,3.31 µM,2.22,7.88 µM,18.8,32.8
OCC1OC(n2cnc3c2NC=NC[C@H]3O)CC1O (stereo not given in full),> 588,500 µM and > 588 µM,> 588 µM,500 µM and > 588 µM,> 588,497 µM and > 588 µM,469 µM and > 588 µM,474 µM and > 588 µM,478 µM and > 588 µM,500 µM and > 588 µM,> 588,481 µM and > 588 µM,> 588,499 µM and > 588 µM,> 588,500 µM and > 588 µM,> 588,469 µM and > 588 µM,> 588,> 588
COc1ccc(C(=O)CC(=O)C(=O)Nc2ccc(C)c(C)c2)cc1,,> 100 µM,,> 82.4 µM,,> 100 µM,,> 100 µM,,> 49.2 µM,,> 100 µM,,> 100 µM,,97.9 µM,,> 100 µM,,> 93.7
CCCC(=O)Nc1ccc2c(c1)CN1C(=O)c3ccccc3C1=N2,,> 100 µM,,> 100 µM,,> 100 µM,,> 100 µM,,> 100 µM,,,,> 100 µM,,,,> 100 µM,,> 100
COc1ccc(NC(=O)CC(=O)N2N=C(N(CCC#N)c3cccc(C)c3)CC2c2ccccc2)cc1 (stereo not given),,> 100 µM,,> 100 µM,,> 100 µM,,> 100 µM,,> 100 µM,,,,> 100 µM,,> 100 µM,,> 100 µM,,> 100
Oc1ccc(-c2cn3cc(Cl)sc3n2)cc1,0.248,94.8 µM,19.8 µM,43.4 µM,3.98,24.6 µM,24.2 µM,78.8 µM,56.9 µM,> 100 µM,57.5,> 100 µM,29.8,78.1 µM,> 100,> 100 µM,16.5,34.3 µM,,
O=C1CC[C@H](c2ccc(O)c3c2C(=O)[C@@H]2O[C@@H]2C3=O)c2cccc(O)c21,,,1.24 µM,2.88 µM,1.46,4.16 µM,2.33 µM,6.3 µM,1.6 µM,4.92 µM,15.5,29 µM,3.54,12.1 µM,1.73,3.27 µM,2.71,17.4 µM,4.55,20.3
O=C(c1nc2ccc(Cl)cc2[nH]c1=O)C(O)c1ccc2c(c1)OCO2 (stereo not given),,,,> 100 µM,,> 100 µM,,> 100 µM,,> 100 µM,,> 100 µM,,,,> 100 µM,,> 100 µM,,> 100
COC1=C2C[C@@H](C)C[C@@H](OC)[C@@H](O)[C@H](C)/C=C(\C)[C@@H](OC(N)=O)[C@H](OC)/C=C\C=C(/C)C(=O)NC(=CC1=O)C2=O,,,0.0578 µM and 0.015 µM,,,,,,,,,17.8 µM and 2.37 µM,,8.59 µM [middle of 4 runs],0.0245,,,,,
CCN(CC)CCCC(Cc1ccccc1)Nc1c2ccc(Cl)cc2nc2ccc(OC)cc12 (stereo not given),2.92,10.2 µM,1.61 µM,3.37 µM,2.01,4.5 µM,1.41 µM,3.57 µM,1.77 µM,3.81 µM,1.88,5.09 µM,,,1.63,3.35 µM,1.91,5.7 µM,2.67,12.7
COc1ccc(C(=O)C(C(=O)C(=O)NC2C3CC4CC(C3)CC2C4)c2ccc(OC)cc2)cc1 (stereo not given),,> 100 µM,,> 100 µM,,> 100 µM,,> 100 µM,,> 100 µM,,> 100 µM,,> 100 µM,,,,> 100 µM,,> 100
O=NN/C(=C1\Nc2ccc([N+](=O)[O-])cc2NC1=O)C(O)c1ccc([N+](=O)[O-])cc1 (stereo not given),,> 100 µM,,> 100 µM,,> 100 µM,,> 100 µM,,> 100 µM,,,,> 100 µM,,> 100 µM,,> 100 µM,,> 100
Cc1ccc(NC2=C(Cl)C(=O)N(Cc3ccccc3)C2=O)cc1Cl,3.4,15.8 µM,7.03 µM,22.1 µM,11.1,26.6 µM,14.3 µM,36.6 µM,5.14 µM,16.9 µM,,,5.64,19.1 µM,2.33,10.6 µM,1.71,6.81 µM,15.7,43.3
COc1ccc(-c2nc(N3CCOCC3)c3sc(CN(C)c4ncc(C(=O)NO)cn4)cc3n2)cn1,0.0168,1.27 µM,,,< 0.01,0.0345 µM,< 0.01 µM,0.0331 µM,< 0.01 µM,1.41 µM,< 0.0155,0.0544 µM,,,< 0.0122,0.0453 µM,,,< 0.01,0.0419
CN(C)C1=NC2=S(SC(Nc3ccccc3)=N2)S1 (stereo not given),,> 100 µM,,,,> 100 µM,,> 100 µM,,> 100 µM,,46.1 µM,,28.8 µM,,> 100 µM,,> 100 µM,,> 100

Compound,GI50 (SN12C renal) [µM],TGI (SN12C renal),GI50 (COLO 205 colon),TGI (COLO 205 colon),GI50 (ACHN renal) [µM],TGI (ACHN renal),GI50 (HT29 colon),TGI (HT29 colon),GI50 (SW-620 colon),TGI (SW-620 colon),GI50 (A498 renal) [µM],TGI (A498 renal),GI50 (SK-MEL-5 melanoma) [µM],TGI (SK-MEL-5 melanoma),GI50 (RXF 393 renal) [µM],TGI (RXF 393 renal),GI50 (MOLT-4 leukemia) [µM],TGI (MOLT-4 leukemia),GI50 (OVCAR-5 ovarian) [µM],TGI (OVCAR-5 ovarian) [µM]
COc1ccc(CCN2CCC(Nc3nc4ccccc4n3Cc3ccc(F)cc3)CC2)cc1,1.51,2.96 µM,1.52 µM,2.98 µM,1.55,2.93 µM,0.591 µM,2.36 µM,1.68 µM,5.14 µM,,,1.32,2.6 µM,1.16,2.44 µM,1.67,4.71 µM,1.66,3.7
Cc1cc(=O)oc2c(OS(C)(=O)=O)c(OS(C)(=O)=O)ccc12,,> 100 µM,,> 100 µM,,> 100 µM,,> 100 µM,,> 100 µM,,> 100 µM,,> 100 µM,,,,> 100 µM,,> 100
NC1=CC(=O)c2nc3ccccc3c3ccnc1c23,5.59,> 74.1 µM,,,3.15,33 µM,3.52 µM,21.2 µM,3.14 µM,> 100 µM,6.19,40.8 µM,,,4.78,17.2 µM,3.21,> 100 µM,13.8,62
Nc1ccc(-c2nc3ccccc3o2)cc1S,13.2,27.5 µM,27.5 µM,> 100 µM,12.1,24.4 µM,,,20.7 µM,44.5 µM,28.3,70.6 µM,12.5,25.1 µM,29.4,59.6 µM,7.77,> 100 µM,19.2,45.3
H-HIIKKIRTWYRKAWHVLGKV-NH2,2.96,13 µM,2.11 µM,4.92 µM,13.2,28.6 µM,14.8 µM,> 100 µM,9.53 µM,> 100 µM,,,3.94,19.5 µM,4.23,25.1 µM,14.2,57.2 µM,6.22,20.5
CCC1CC(C)=CCN1S(=O)(=O)c1ccc(C)cc1 (stereo not given),,24.3 µM,,38.4 µM,,> 100 µM,,39.3 µM,,,,> 100 µM,,26.8 µM,,,,83.6 µM,,> 100
Cc1cc2cc3cc(C)c(N)cc3[n+](C)c2cc1N,0.334,10.2 µM,1.15 µM,2.87 µM,1.95,8.27 µM,1.41 µM,6 µM,,,2.54,8.76 µM,0.762,2.08 µM,0.584,4.33 µM,2.58,13.6 µM,3.94,16
Cc1c(-c2nnc(-c3ccc(F)cc3)o2)nnn1-c1ccnc2c(C(F)(F)F)cccc12,41.3,> 100 µM,42.1 µM,> 100 µM,30.8,> 100 µM,34.4 µM,> 100 µM,31.9 µM,> 100 µM,,,30.4,> 100 µM,21.6,70.7 µM,> 100,> 100 µM,66.7,> 100
CCOC(=O)N[C@@H]1C2CC(=O)C(O2)[C@@H]1OC (stereo not given in full),,> 100 µM,,> 100 µM,,> 100 µM,,> 100 µM,,> 100 µM,,,,> 100 µM,,> 100 µM,,> 100 µM,,> 100
CCOC(=O)NC(=O)c1cn(CCCOC(=O)NCCCCCCNC(=O)OCCCn2cc(C(=O)NC(=O)OCC)c(=O)[nH]c2=O)c(=O)[nH]c1=O,,> 100 µM,,41 µM,,32.9 µM,,> 100 µM,,93.6 µM,,44.1 µM,,> 100 µM,,,,90.3 µM,,
COc1ccc(-c2cc(-c3cc(C)ccc3O)[nH]c(=O)n2)cc1,,> 100 µM,,> 100 µM,,> 100 µM,,> 100 µM,,> 100 µM,,> 100 µM,,,,88.6 µM,,> 100 µM,,
Clc1ccc(C2=NN[C@H](c3cn(-c4ccccc4)nc3-c3ccccc3)C2)cc1,3.61,17.2 µM,4.63 µM,22.4 µM,,,5.76 µM,55.8 µM,4.31 µM,32 µM,2.93,8.77 µM,19,> 100 µM,2.48,8.08 µM,19.6,> 100 µM,,
O=C(NC1CCCCC1)NS(=O)(=O)c1ccc(-n2nc3c(c2-c2ccc(Cl)cc2)Cc2ccccc2-3)cc1,7.54,30.3 µM,36.2 µM,> 100 µM,7.93,21 µM,34.8 µM,> 100 µM,2.46 µM,> 100 µM,18.5,40.2 µM,12.1,40.2 µM,20,75.2 µM,2.77,7.28 µM,,
CC1=NC(C(C)C)C(=O)O1 (stereo not given),,> 100 µM,,> 100 µM,,> 100 µM,,> 100 µM,,25.8 µM,,> 100 µM,,> 100 µM,,,,> 100 µM,,> 100
COC1OC(COS(=O)(=O)c2ccc(C)cc2)C(O)C(OS(=O)(=O)c2ccc(C)cc2)C1OS(=O)(=O)c1ccc(C)cc1 (stereo not given),,> 100 µM,,> 100 µM,,> 100 µM,,> 100 µM,,> 100 µM,,,,> 100 µM,,> 100 µM,,> 100 µM,,> 100
C=C(C)[C@@H]1CC[C@]2(C(=O)O)CC[C@]3(C)[C@H](CC[C@@H]4[C@@]5(C)C/C(=C/c6ccc(OC)cc6)C(=O)C(C)(C)[C@@H]5CC[C@]43C)[C@@H]12,2.07,5.9 µM,,,2.77,10.5 µM,3.09 µM,10.2 µM,1.95 µM,4.61 µM,2.28,8.47 µM,2.03,4.12 µM,2.1,5.26 µM,2.97,> 100 µM,3.2,12
